Organism: Rattus norvegicus
Assay: Open TG-GATES - Regimen: Single
Format: toxicity, organism-based, Sprague-Dawley
Set-up: regimen Single, gender Male, age 6 weeks
Conditions: in vivo, po, 0 mg/kg, route gavage, dose level Control; for APTT / Bas / Eos / Fbg / Hb / Ht / Lym / MCH / MCHC / MCV / Mono / Neu / PT / Plat / RBC / Ret / WBC: tissue Blood; for ALP / ALT / AST / BUN / CRE / DBIL / GLC / IP / K / Na / PL / RALB / TBIL / TC / TG / TP / gamma-GTP: tissue Plasma

For NS(=O)(=O)c1cc(C(=O)O)c(NCc2ccco2)cc1Cl [FUROSEMIDE], which TERMINAL_BW (3 h) is on record?
The TERMINAL_BW was 205.5 g.

And the APTT (3 h)?
Its APTT is 15.8 s.

What about the Bas (3 h) of the same compound?
Its Bas is 0%.

And the Eos (3 h)?
Its Eos is 0.8%.

What about the Fbg (3 h) of the same compound?
The Fbg was 270 mg/dL.

What about the Hb (3 h) of the same compound?
Its Hb is 13.2 g/dL.

What about the Ht (3 h) of the same compound?
Its Ht is 39.9%.

What about the Lym (3 h) of the same compound?
Its Lym is 78.2%.

And the MCH (3 h)?
The MCH was 21.5 pg.

What about the MCHC (3 h) of the same compound?
Its MCHC is 33.2%.

And the MCV (3 h)?
Its MCV is 64.8 fL.

What about the Mono (3 h) of the same compound?
The Mono was 2.8%.

What about the Neu (3 h) of the same compound?
The Neu was 17.2%.

And the PT (3 h)?
Its PT is 15.6 s.

And the Plat (3 h)?
The Plat was 115.8 x10_4/uL.

What about the RBC (3 h) of the same compound?
The RBC was 615.6 x10_4/ul.

What about the Ret (3 h) of the same compound?
The Ret was 7.3%.

And the WBC (3 h)?
The WBC was 70.5 x10_2/uL.

And the ALP (3 h)?
The ALP was 1448.8 IU/L.

What about the ALT (3 h) of the same compound?
The ALT was 40.4 IU/L.

And the AST (3 h)?
Its AST is 76.2 IU/L.

What about the BUN (3 h) of the same compound?
The BUN was 10.2 mg/dL.

And the CRE (3 h)?
Its CRE is 0.2 mg/dL.

What about the DBIL (3 h) of the same compound?
Its DBIL is 0.01 mg/dL.

And the GLC (3 h)?
Its GLC is 172.8 mg/dL.

What about the IP (3 h) of the same compound?
Its IP is 9 mg/dL.

And the K (3 h)?
Its K is 4 meq/L.

And the Na (3 h)?
The Na was 142.4 meq/L.

And the PL (3 h)?
Its PL is 137.6 mg/dL.

What about the RALB (3 h) of the same compound?
Its RALB is 2.5 g/dL.

And the TBIL (3 h)?
The TBIL was 0.058 mg/dL.

What about the TC (3 h) of the same compound?
The TC was 72.2 mg/dL.

What about the TG (3 h) of the same compound?
The TG was 61.6 mg/dL.

And the TP (3 h)?
The TP was 5.4 g/dL.

What about the gamma-GTP (3 h) of the same compound?
The gamma-GTP was 0.6 IU/L.

What about the TERMINAL_BW (6 h) of the same compound?
Its TERMINAL_BW is 207.5 g.

And the APTT (6 h)?
Its APTT is 16.5 s.

What about the Bas (6 h) of the same compound?
Its Bas is 0%.

And the Eos (6 h)?
Its Eos is 1.2%.

What about the Fbg (6 h) of the same compound?
Its Fbg is 313.6 mg/dL.

What about the Hb (6 h) of the same compound?
Its Hb is 13.1 g/dL.

What about the Ht (6 h) of the same compound?
Its Ht is 39.4%.

What about the Lym (6 h) of the same compound?
The Lym was 75.8%.

And the MCH (6 h)?
The MCH was 21.2 pg.

What about the MCHC (6 h) of the same compound?
The MCHC was 33.1%.

And the MCV (6 h)?
Its MCV is 63.9 fL.

And the Mono (6 h)?
Its Mono is 2.8%.

And the Neu (6 h)?
The Neu was 19.4%.

What about the PT (6 h) of the same compound?
The PT was 15.3 s.

And the Plat (6 h)?
Its Plat is 122.5 x10_4/uL.

And the RBC (6 h)?
Its RBC is 617.2 x10_4/ul.

And the Ret (6 h)?
The Ret was 8%.

And the WBC (6 h)?
The WBC was 72.8 x10_2/uL.

And the ALP (6 h)?
The ALP was 1332.6 IU/L.

What about the ALT (6 h) of the same compound?
Its ALT is 39 IU/L.

And the AST (6 h)?
Its AST is 70.6 IU/L.

What about the BUN (6 h) of the same compound?
Its BUN is 11 mg/dL.

What about the CRE (6 h) of the same compound?
Its CRE is 0.2 mg/dL.

What about the DBIL (6 h) of the same compound?
The DBIL was 0.012 mg/dL.

What about the GLC (6 h) of the same compound?
Its GLC is 173.8 mg/dL.

What about the IP (6 h) of the same compound?
The IP was 9.7 mg/dL.

And the K (6 h)?
Its K is 3.9 meq/L.

And the Na (6 h)?
The Na was 142.2 meq/L.

And the PL (6 h)?
Its PL is 143.2 mg/dL.

What about the RALB (6 h) of the same compound?
Its RALB is 2.6 g/dL.

And the TBIL (6 h)?
The TBIL was 0.062 mg/dL.

What about the TC (6 h) of the same compound?
The TC was 80.4 mg/dL.

And the TG (6 h)?
The TG was 48.8 mg/dL.

And the TP (6 h)?
Its TP is 5.5 g/dL.

And the gamma-GTP (6 h)?
The gamma-GTP was 0.8 IU/L.

And the TERMINAL_BW (9 h)?
The TERMINAL_BW was 206.6 g.

And the APTT (9 h)?
Its APTT is 19.4 s.

And the Bas (9 h)?
The Bas was 0%.

And the Eos (9 h)?
The Eos was 0.8%.

And the Fbg (9 h)?
Its Fbg is 294.4 mg/dL.

And the Hb (9 h)?
Its Hb is 13 g/dL.

And the Ht (9 h)?
Its Ht is 39%.

What about the Lym (9 h) of the same compound?
Its Lym is 79.6%.

And the MCH (9 h)?
Its MCH is 20.7 pg.

What about the MCHC (9 h) of the same compound?
Its MCHC is 33.2%.

What about the MCV (9 h) of the same compound?
Its MCV is 62.4 fL.

And the Mono (9 h)?
The Mono was 2.2%.

And the Neu (9 h)?
The Neu was 17%.

What about the PT (9 h) of the same compound?
The PT was 15.3 s.

And the Plat (9 h)?
Its Plat is 108.3 x10_4/uL.

And the RBC (9 h)?
The RBC was 625.6 x10_4/ul.

And the Ret (9 h)?
Its Ret is 7.8%.

What about the WBC (9 h) of the same compound?
Its WBC is 70.5 x10_2/uL.

And the ALP (9 h)?
Its ALP is 1206 IU/L.

And the ALT (9 h)?
The ALT was 40.8 IU/L.

And the AST (9 h)?
Its AST is 68.2 IU/L.

What about the BUN (9 h) of the same compound?
The BUN was 9 mg/dL.

What about the CRE (9 h) of the same compound?
Its CRE is 0.2 mg/dL.

What about the DBIL (9 h) of the same compound?
Its DBIL is 0.01 mg/dL.

What about the GLC (9 h) of the same compound?
Its GLC is 182.8 mg/dL.

And the IP (9 h)?
The IP was 10.2 mg/dL.

And the K (9 h)?
Its K is 4 meq/L.

And the Na (9 h)?
Its Na is 144.2 meq/L.

And the PL (9 h)?
The PL was 142 mg/dL.

What about the RALB (9 h) of the same compound?
Its RALB is 2.6 g/dL.

What about the TBIL (9 h) of the same compound?
Its TBIL is 0.066 mg/dL.

What about the TC (9 h) of the same compound?
The TC was 79 mg/dL.

What about the TG (9 h) of the same compound?
The TG was 35.8 mg/dL.

What about the TP (9 h) of the same compound?
Its TP is 5.6 g/dL.

And the gamma-GTP (9 h)?
The gamma-GTP was 0.8 IU/L.

What about the TERMINAL_BW (24 h) of the same compound?
The TERMINAL_BW was 222.4 g.

What about the APTT (24 h) of the same compound?
Its APTT is 16.2 s.

What about the Bas (24 h) of the same compound?
The Bas was 0%.

What about the Eos (24 h) of the same compound?
The Eos was 1%.

What about the Fbg (24 h) of the same compound?
The Fbg was 270.8 mg/dL.

And the Hb (24 h)?
The Hb was 13.1 g/dL.

And the Ht (24 h)?
The Ht was 39.3%.

What about the Lym (24 h) of the same compound?
The Lym was 74.2%.

And the MCH (24 h)?
Its MCH is 21.3 pg.

And the MCHC (24 h)?
The MCHC was 33.3%.

What about the MCV (24 h) of the same compound?
The MCV was 64.1 fL.

What about the Mono (24 h) of the same compound?
Its Mono is 3.2%.

What about the Neu (24 h) of the same compound?
Its Neu is 20.6%.

What about the PT (24 h) of the same compound?
The PT was 15.9 s.

What about the Plat (24 h) of the same compound?
Its Plat is 116.4 x10_4/uL.

What about the RBC (24 h) of the same compound?
The RBC was 613.6 x10_4/ul.

And the Ret (24 h)?
Its Ret is 7.6%.

What about the WBC (24 h) of the same compound?
The WBC was 104.1 x10_2/uL.

What about the ALP (24 h) of the same compound?
The ALP was 1714.2 IU/L.

And the ALT (24 h)?
The ALT was 47.4 IU/L.

And the AST (24 h)?
Its AST is 73.4 IU/L.

What about the BUN (24 h) of the same compound?
The BUN was 15.4 mg/dL.

What about the CRE (24 h) of the same compound?
Its CRE is 0.2 mg/dL.

And the DBIL (24 h)?
Its DBIL is 0.014 mg/dL.

And the GLC (24 h)?
Its GLC is 182.4 mg/dL.

What about the IP (24 h) of the same compound?
The IP was 8.4 mg/dL.

And the K (24 h)?
Its K is 4.2 meq/L.

And the Na (24 h)?
The Na was 141.6 meq/L.

And the PL (24 h)?
The PL was 156 mg/dL.

What about the RALB (24 h) of the same compound?
The RALB was 2.6 g/dL.

What about the TBIL (24 h) of the same compound?
The TBIL was 0.052 mg/dL.

And the TC (24 h)?
Its TC is 81.6 mg/dL.

And the TG (24 h)?
The TG was 72.8 mg/dL.

What about the TP (24 h) of the same compound?
Its TP is 5.7 g/dL.

What about the gamma-GTP (24 h) of the same compound?
Its gamma-GTP is 0.8 IU/L.

Source: ChEMBL document CHEMBL3885861, “Open TG-GATES”
